Reference: BindingDB's records for patent US20240109900 (IRBM, 2024)

Biological target: T1, Tyrosine-protein phosphatase non-receptor type 11 (Homo sapiens, UniProt Q06124)
T1 sequence (Q06124 whole entry): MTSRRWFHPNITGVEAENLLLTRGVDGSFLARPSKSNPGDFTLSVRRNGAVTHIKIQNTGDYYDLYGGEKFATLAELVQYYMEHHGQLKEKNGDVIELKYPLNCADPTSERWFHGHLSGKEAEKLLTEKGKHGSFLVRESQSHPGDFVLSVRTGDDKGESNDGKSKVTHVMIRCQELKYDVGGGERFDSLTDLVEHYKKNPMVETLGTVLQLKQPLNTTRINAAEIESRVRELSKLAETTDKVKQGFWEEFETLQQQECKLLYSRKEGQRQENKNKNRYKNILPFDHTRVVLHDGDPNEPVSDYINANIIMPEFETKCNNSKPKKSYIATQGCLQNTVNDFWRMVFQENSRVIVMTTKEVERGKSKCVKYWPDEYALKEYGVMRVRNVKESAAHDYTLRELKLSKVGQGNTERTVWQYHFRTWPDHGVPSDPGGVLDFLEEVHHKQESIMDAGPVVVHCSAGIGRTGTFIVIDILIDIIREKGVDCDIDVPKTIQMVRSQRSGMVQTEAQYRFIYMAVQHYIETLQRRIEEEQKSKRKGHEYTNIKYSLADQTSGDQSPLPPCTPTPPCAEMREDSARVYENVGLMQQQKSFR
Assay: SHP2 Inhibition Enzymatic Assay
Method: Assay volume of 20 μL/well was assembled in 384 well black polystyrene low-binding microplates (Greiner), using the following buffer: 60 mM HEPES pH 7.2, 75 mM NaCl, 75 mM KCl, 1 mM EDTA pH 8, 0.05% tween-20, 5 mM DTT. The SHP-2 enzyme (synthetized by Origene, Met1-Leu525, cat #TP750155) was used at a final concentration of 0.5 nM. […] SHP2 was then added together with the IRS1 peptide. 30 min post incubation, the DiFMUP substrate was added to the reaction and incubated 30 min at room temperature. […] The fluorescence was detected by a microplate reader (Envision, PerkinElmer) according to the DiFMUP excitation and emission wavelength. The lower the fluorescence the higher the SHP2 inhibition. […] The percentage inhibition is fitted against the compound dilutions with a four-parameter logistic regression.

Structure (SMILES) | IC50 [nM]
Cc1csc([C@@]2(CN)[C@@H]3CN(c4cnc5c(-c6ccnc(C)c6F)n[nH]c5n4)C[C@@H]32)n1 [US20240109900, Example 477] | < 500
CC(C)(C)C#Cc1n[nH]c2nc(N3CC[C@@H]4[C@H](C3)[C@@]4(CN)c3ccccc3F)cnc12 [US20240109900, Example 366] | < 500
NC[C@]1(c2ccccc2F)[C@@H]2CCN(c3cnc4c(-c5ccc(F)c6c(=O)[nH]ccc56)n[nH]c4n3)C[C@@H]21 [US20240109900, Example 314] | < 500
Cc1cc(C(N)=O)ncc1-c1n[nH]c2nc(N3CC[C@@H]4[C@H](C3)[C@@]4(CN)c3ccccc3F)cnc12 [US20240109900, Example 307] | < 500
COc1nccc2cc(-c3n[nH]c4nc(N5CC[C@@H]6[C@H](C5)[C@@]6(CN)c5ccccc5F)cnc34)ccc12 [US20240109900, Example 352] | < 500
NC[C@]1(c2ccccc2F)[C@@H]2CCN(c3cnc4c(-c5ccc6c(N)nccc6c5)n[nH]c4n3)C[C@@H]21 [US20240109900, Example 319] | < 500
Cc1csc([C@@]2(CN)[C@@H]3CCN(c4cnc5c(-c6ccc(F)c7ncccc67)c[nH]c5n4)C[C@@H]32)n1 [US20240109900, Example 502] | < 500
NC[C@]1(c2ccsn2)[C@@H]2CN(c3cnc4c(-c5ccc6nn(C(F)F)cc6c5Cl)n[nH]c4n3)C[C@@H]21 [US20240109900, Example 468] | < 500
NC[C@]1(c2ccccc2F)[C@@H]2CCN(c3cnc4c(-c5ccc6nn(CCO)cc6c5Cl)n[nH]c4n3)C[C@@H]21 [US20240109900, Example 365] | < 500
CN1CCOc2ccc(-c3n[nH]c4nc(N5CC[C@@H]6[C@H](C5)[C@@]6(CN)c5ccccc5F)cnc34)c(Cl)c21 [US20240109900, Example 321] | < 500

The remaining lines, values ahead:

IC50 [nM] | Structure (SMILES)
< 500 | Cc1nc2ccc(-c3n[nH]c4nc(N5CC[C@@H]6[C@H](C5)[C@@]6(CN)c5ccccc5F)cnc34)c(Cl)c2n1C [US20240109900, Example 358]
< 500 | Cc1csc([C@@]2(CN)[C@@H]3CN(c4cnc5c(-c6ccnc(-n7cccn7)c6Cl)n[nH]c5n4)C[C@@H]32)n1 [US20240109900, Example 516]
< 500 | Cc1c(-c2n[nH]c3nc(N4CC[C@@H]5[C@H](C4)[C@@]5(CN)c4cc(F)cc(F)c4)cnc23)ccc2nn(C)cc12 [US20240109900, Example 308]
< 500 | Cc1csc([C@@]2(CN)[C@@H]3CN(c4nc(C)n(-c5cccc(Cl)c5Cl)c(=O)c4Cl)C[C@@H]32)n1 [US20240109900, Example 526]
< 500 | NC[C@]1(c2ccccc2F)[C@@H]2CCN(c3nc4nc(Sc5ccnc(-n6cccn6)c5Cl)cnc4[nH]3)C[C@@H]21 [US20240109900, Example 342]
< 500 | NC[C@]1(c2ccccc2F)[C@@H]2CCN(c3cnc4c(-c5ccc(-c6nsc(O)n6)cc5Cl)n[nH]c4n3)C[C@@H]21 [US20240109900, Example 379]
< 500 | Cc1csc([C@@]2(CN)[C@@H]3CN(c4cnc(Sc5ccnc(-n6cccn6)c5Cl)cn4)C[C@@H]32)n1 [US20240109900, Example 520]
< 500 | NC[C@]1(c2cc(F)ccc2F)[C@@H]2CCN(c3cnc4c(-c5cccc6c5CCC(=O)N6)n[nH]c4n3)C[C@@H]21 [US20240109900, Example 531]
< 500 | Cc1csc([C@@]2(CN)[C@@H]3CN(c4cnc5c(-c6ccc7c(c6)CC(=O)N7C)n[nH]c5n4)C[C@@H]32)n1 [US20240109900, Example 513]
< 500 | Cc1c(-c2n[nH]c3nc(N4CC[C@@H]5[C@H](C4)[C@@]5(CN)c4ccccc4F)cnc23)ccc2c1ncn2C [US20240109900, Example 318]
< 500 | NC[C@]1(c2ccccc2F)[C@@H]2CCN(c3cnc4c(-c5ccc(CC(N)=O)cc5Cl)n[nH]c4n3)C[C@@H]21 [US20240109900, Example 328]
< 500 | NC[C@]1(c2ccccc2F)[C@@H]2CCN(c3cnc4c(-c5ccc(-c6cc(F)c(O)c(F)c6)cc5Cl)n[nH]c4n3)C[C@@H]21 [US20240109900, Example 313]
< 500 | NCC1(c2ccccc2F)C2CCN(c3cc4nc(Sc5ccnc(N)c5Cl)cnc4[nH]3)CC21 (centres undefined) [US20240109900, Example 59]
< 500 | N#CNC(=O)c1ccc(-c2n[nH]c3nc(N4CC[C@@H]5[C@H](C4)[C@@]5(CN)c4ccccc4F)cnc23)c(Cl)c1 [US20240109900, Example 310]
